The supplement of paper PMC10307832

How the values were obtained:
Experiment in all cases: relative viability (nuclei count vs DMSO), 5 days (fraction); higher = more cells survive
EPLC-272H = tested on: EPLC-272H
Method in brief: (§1)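 Lung cancer cell lines were seeded in 1536-well plates and dosed by pin tool the next day, with either a single drug or a fixed anchor-drug dose combined with five library-drug doses (not always all listed) spaced in √10 steps. Five days later, one step fixed the cells and stained their nuclei (final 0.05% Triton X-100, 1% formaldehyde, 1 ug/ml Hoechst), and nuclei were counted on 4× images. Relative viability is the nuclei count in treated wells divided by the count in vehicle wells, and each value is the median of duplicate plates.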

NCI-H520 = tested on: NCI-H520
Method in brief: as §1

NCI-H1651 = tested on: NCI-H1651
Method in brief: as §1

NCI-H2405 = tested on: NCI-H2405
Method in brief: as §1

NCI-H23 = tested on: NCI-H23
Method in brief: as §1

ChaGo-K-1 = tested on: ChaGo-K-1
Method in brief: as §1

NCI-H2087 = tested on: NCI-H2087
Method in brief: as §1

NCI-H322M = tested on: NCI-H322M
Method in brief: as §1

UMC-11 = tested on: UMC-11
Method in brief: as §1

SK-MES-1 = tested on: SK-MES-1
Method in brief: as §1

NCI-H1563 = tested on: NCI-H1563
Method in brief: as §1

NCI-H1944 = tested on: NCI-H1944
Method in brief: as §1

NCI-H1793 = tested on: NCI-H1793
Method in brief: as §1

NCI-H1993 = tested on: NCI-H1993
Method in brief: as §1

EMC-BAC-2 = tested on: EMC-BAC-2
Method in brief: as §1

NCI-H1395 = tested on: NCI-H1395
Method in brief: as §1

LCLC-97TM1 = tested on: LCLC-97TM1
Method in brief: as §1

NCI-H1355 = tested on: NCI-H1355
Method in brief: as §1

LCLC-103H = tested on: LCLC-103H
Method in brief: as §1

H3255 = tested on: H3255
Method in brief: as §1

NCI-H2085 = tested on: NCI-H2085
Method in brief: as §1

HCC-827 = tested on: HCC-827
Method in brief: as §1

NCI-H650 = tested on: NCI-H650
Method in brief: as §1

## Clc1ccc(Nc2nnc(Cc3ccncc3)c3ccccc23)cc1 [Vatalanib] + Cc1nc(Nc2ncc(C(=O)Nc3c(C)cccc3Cl)s2)cc(N2CCN(CCO)CC2)n1 [Dasatinib] (partner 0.075 µM)
EPLC-272H; first compound 0.04 µM
  relative viability: 0.441
EPLC-272H; first compound 0.1265 µM
  relative viability: 0.347
EPLC-272H; first compound 0.4 µM
  relative viability: 0.449
EPLC-272H; first compound 1.265 µM
  relative viability: 0.36
EPLC-272H; first compound 4 µM
  relative viability: 0.481
NCI-H520; first compound 0.04 µM
  relative viability: 0.205
NCI-H520; first compound 0.1265 µM
  relative viability: 0.202
NCI-H520; first compound 0.4 µM
  relative viability: 0.218
NCI-H520; first compound 1.265 µM
  relative viability: 0.161
NCI-H520; first compound 4 µM
  relative viability: 0.126
NCI-H1651; first compound 0.04 µM
  relative viability: 0.317
NCI-H1651; first compound 0.1265 µM
  relative viability: 0.31
NCI-H1651; first compound 0.4 µM
  relative viability: 0.421
NCI-H1651; first compound 1.265 µM
  relative viability: 0.462
NCI-H1651; first compound 4 µM
  relative viability: 0.372
NCI-H2405; first compound 0.04 µM
  relative viability: 0.226
NCI-H2405; first compound 0.1265 µM
  relative viability: 0.195
NCI-H2405; first compound 1.265 µM
  relative viability: 0.197
NCI-H2405; first compound 4 µM
  relative viability: 0.203
NCI-H23; first compound 0.04 µM
  relative viability: 0.792
NCI-H23; first compound 0.1265 µM
  relative viability: 0.73
NCI-H23; first compound 0.4 µM
  relative viability: 0.929
NCI-H23; first compound 1.265 µM
  relative viability: 0.772
NCI-H23; first compound 4 µM
  relative viability: 0.667
ChaGo-K-1; first compound 0.04 µM
  relative viability: 0.578
ChaGo-K-1; first compound 0.1265 µM
  relative viability: 0.541
ChaGo-K-1; first compound 0.4 µM
  relative viability: 0.582
ChaGo-K-1; first compound 1.265 µM
  relative viability: 0.569
ChaGo-K-1; first compound 4 µM
  relative viability: 0.586
NCI-H2087; first compound 0.04 µM
  relative viability: 0.937
NCI-H2087; first compound 0.1265 µM
  relative viability: 0.769
NCI-H2087; first compound 0.4 µM
  relative viability: 1.09
NCI-H2087; first compound 1.265 µM
  relative viability: 0.808
NCI-H2087; first compound 4 µM
  relative viability: 0.884
NCI-H322M; first compound 0.04 µM
  relative viability: 0.248
NCI-H322M; first compound 0.1265 µM
  relative viability: 0.238
NCI-H322M; first compound 0.4 µM
  relative viability: 0.256
NCI-H322M; first compound 1.265 µM
  relative viability: 0.247
NCI-H322M; first compound 4 µM
  relative viability: 0.256
UMC-11; first compound 0.04 µM
  relative viability: 0.422
UMC-11; first compound 0.1265 µM
  relative viability: 0.496
UMC-11; first compound 0.4 µM
  relative viability: 0.444
UMC-11; first compound 1.265 µM
  relative viability: 0.442
UMC-11; first compound 4 µM
  relative viability: 0.45
SK-MES-1; first compound 0.04 µM
  relative viability: 0.346
SK-MES-1; first compound 0.1265 µM
  relative viability: 0.439
SK-MES-1; first compound 0.4 µM
  relative viability: 0.32
SK-MES-1; first compound 1.265 µM
  relative viability: 0.348
SK-MES-1; first compound 4 µM
  relative viability: 0.34
NCI-H1563; first compound 0.04 µM
  relative viability: 0.45
NCI-H1563; first compound 0.1265 µM
  relative viability: 0.479
NCI-H1563; first compound 0.4 µM
  relative viability: 0.428
NCI-H1563; first compound 1.265 µM
  relative viability: 0.456
NCI-H1563; first compound 4 µM
  relative viability: 0.346
NCI-H1944; first compound 0.04 µM
  relative viability: 0.227
NCI-H1944; first compound 0.1265 µM
  relative viability: 0.228
NCI-H1944; first compound 0.4 µM
  relative viability: 0.254
NCI-H1944; first compound 1.265 µM
  relative viability: 0.23
NCI-H1944; first compound 4 µM
  relative viability: 0.228
NCI-H1793; first compound 0.04 µM
  relative viability: 0.379
NCI-H1793; first compound 0.1265 µM
  relative viability: 0.377
NCI-H1793; first compound 0.4 µM
  relative viability: 0.458
NCI-H1793; first compound 1.265 µM
  relative viability: 0.349
NCI-H1793; first compound 4 µM
  relative viability: 0.4
NCI-H1993; first compound 0.04 µM
  relative viability: 0.727
NCI-H1993; first compound 0.1265 µM
  relative viability: 0.651
NCI-H1993; first compound 0.4 µM
  relative viability: 0.574
NCI-H1993; first compound 1.265 µM
  relative viability: 0.552
NCI-H1993; first compound 4 µM
  relative viability: 0.578
EMC-BAC-2; first compound 0.04 µM
  relative viability: 0.329
EMC-BAC-2; first compound 0.1265 µM
  relative viability: 0.31
EMC-BAC-2; first compound 0.4 µM
  relative viability: 0.355
EMC-BAC-2; first compound 1.265 µM
  relative viability: 0.306
EMC-BAC-2; first compound 4 µM
  relative viability: 0.331
NCI-H1395; first compound 0.04 µM
  relative viability: 0.456
NCI-H1395; first compound 0.1265 µM
  relative viability: 0.392
NCI-H1395; first compound 0.4 µM
  relative viability: 0.384
NCI-H1395; first compound 1.265 µM
  relative viability: 0.389
NCI-H1395; first compound 4 µM
  relative viability: 0.407
LCLC-97TM1; first compound 0.04 µM
  relative viability: 0.994
LCLC-97TM1; first compound 0.1265 µM
  relative viability: 0.621
LCLC-97TM1; first compound 0.4 µM
  relative viability: 0.839
LCLC-97TM1; first compound 1.265 µM
  relative viability: 0.775
LCLC-97TM1; first compound 4 µM
  relative viability: 0.871
NCI-H1355; first compound 0.04 µM
  relative viability: 0.75
NCI-H1355; first compound 0.1265 µM
  relative viability: 0.728
NCI-H1355; first compound 0.4 µM
  relative viability: 0.778
NCI-H1355; first compound 1.265 µM
  relative viability: 0.603
NCI-H1355; first compound 4 µM
  relative viability: 0.633
LCLC-103H; first compound 0.04 µM
  relative viability: 0.428
LCLC-103H; first compound 0.1265 µM
  relative viability: 0.462
LCLC-103H; first compound 0.4 µM
  relative viability: 0.543
LCLC-103H; first compound 1.265 µM
  relative viability: 0.484
LCLC-103H; first compound 4 µM
  relative viability: 0.396
H3255; first compound 0.04 µM
  relative viability: 0.316
H3255; first compound 0.1265 µM
  relative viability: 0.385
H3255; first compound 0.4 µM
  relative viability: 0.311
H3255; first compound 1.265 µM
  relative viability: 0.28
H3255; first compound 4 µM
  relative viability: 0.335
NCI-H2085; first compound 0.04 µM
  relative viability: 0.218
NCI-H2085; first compound 0.1265 µM
  relative viability: 0.226
NCI-H2085; first compound 0.4 µM
  relative viability: 0.277
NCI-H2085; first compound 1.265 µM
  relative viability: 0.188
NCI-H2085; first compound 4 µM
  relative viability: 0.258
HCC-827; first compound 0.04 µM
  relative viability: 0.375
HCC-827; first compound 0.1265 µM
  relative viability: 0.31
HCC-827; first compound 0.4 µM
  relative viability: 0.166
HCC-827; first compound 1.265 µM
  relative viability: 0.326
HCC-827; first compound 4 µM
  relative viability: 0.275
NCI-H650; first compound 0.04 µM
  relative viability: 0.434
NCI-H650; first compound 0.1265 µM
  relative viability: 0.448
NCI-H650; first compound 1.265 µM
  relative viability: 0.399
NCI-H650; first compound 4 µM
  relative viability: 0.434
